Measured values: ChEMBL document CHEMBL1201862, “PubChem BioAssay data set” (2004)
The source made the active and inactive calls.

What was measured:
[1] = target: Dual specificity protein phosphatase 3 (Homo sapiens, UniProt P51452); assay: inhibition constants for human DUSP3 – biochemical, colorimetric, SAR follow-up (AID 2004)
[2] = target: Nucleotide-binding oligomerization domain-containing protein 1 (Homo sapiens, UniProt Q9Y239); assay: blockers of NOD1 pathway activity – revised, SAR follow-up (AID 2333); type: functional
[3] = Trypanosoma cruzi growth suppression in host cells – NIH3T3 host cells, beta-gal luminescence, confirmation (AID 2044); type: functional, cell-based;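 also: intracellular parasites grown in NIH/3T3 mouse fibroblasts as host cells; luminescent beta-galactosidase reporter signal from transgenic T. cruzi replicating inside host cells; inhibitors lower the luminescence signal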
[4] = HepG2 cell cytotoxicity, dose response, cytotoxicity control for non-replicating M. tuberculosis project (AID 489018); type: functional; details: Mycobacterium tuberculosis
[5] = target: Nucleotide-binding oligomerization domain-containing protein 2 (Homo sapiens, UniProt Q9HC29); assay: PubChem AID 2334; type: functional
[6] = Vero E6 cell cytotoxicity, dose response, cytotoxicity control for non-replicating M. tuberculosis project, secondary assay (AID 492998); type: functional, VeroE6; details: Vero C1008
Tumor necrosis factor = Tumor necrosis factor (Homo sapiens, UniProt P01375); assay: analog potency on TNFa NF-kB signaling – cell-based, revised, SAR follow-up (AID 2337); type: functional
[7] = microbe, parasite or virus in culture; type: functional; details: Mycobacterium tuberculosis
cells [8] = type: functional
[9] = NIH3T3 cell viability loss – ATP luminescence, mouse fibroblasts, counter-screen, dose response (AID 2010); type: functional, cell-based;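 also: cells exposed to compound for about 90 hours before reading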
[10] = THP-1 cell cytotoxicity, dose response, cytotoxicity control for non-replicating M. tuberculosis project (AID 489025); type: functional
Interleukin-8 [11] = target: T1, Interleukin-8 (Homo sapiens, UniProt P10145); assay: SAR analysis of Tumor necrosis factor alpha (TNF-alpha) induced IL-8 secretion in MCF-7/NOD1 cells - Set 2. [Related pubchem assays (depositor defined):AID1575, AID2250, AID2260]; type: functional, cell-based
T1 sequence (P10145 whole entry): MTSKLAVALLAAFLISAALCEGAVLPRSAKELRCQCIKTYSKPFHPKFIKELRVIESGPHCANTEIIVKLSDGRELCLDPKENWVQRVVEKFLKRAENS

HEK293 [12] = assay: cells; details: Homo sapiens
Interleukin-8 [13] = target: T1, Interleukin-8; assay: SAR analysis of GM-Tri-DAP induced IL-8 secretion in MCF-7/NOD1 cells - Set 2. [Related pubchem assays (depositor defined):AID1575, AID1578, AID2333]; type: functional, cell-based
[14] = target: T2, Neuropeptides B/W receptor type 1 (Homo sapiens, UniProt P48145); assay: Fluorescence-based dose response cell-based high throughput screening assay to identify antagonists of the G-protein coupled receptor 7 (GPR7). [Related pubchem assays: 1952 (Screening assay (GPR7 antagonists).), 1880 (Summary AID.)]; type: functional
T2 sequence (P48145 whole entry): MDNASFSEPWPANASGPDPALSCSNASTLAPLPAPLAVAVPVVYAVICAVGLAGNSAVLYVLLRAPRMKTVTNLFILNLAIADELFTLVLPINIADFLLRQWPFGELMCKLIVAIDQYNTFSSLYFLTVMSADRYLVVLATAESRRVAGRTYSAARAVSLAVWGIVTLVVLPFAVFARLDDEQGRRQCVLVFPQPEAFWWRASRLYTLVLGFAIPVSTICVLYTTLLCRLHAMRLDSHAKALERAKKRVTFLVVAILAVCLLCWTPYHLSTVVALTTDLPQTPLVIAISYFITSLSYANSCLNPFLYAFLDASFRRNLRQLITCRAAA

[15] = target: Melanin-concentrating hormone receptor 1 (Homo sapiens, UniProt Q99705); assay: Fluorescence-based counterscreen for antagonists of the G-protein coupled receptor 7 (GPR7): cell-based high throughput dose response assay to identify antagonists of the melanin-concentrating hormone receptor 1 (MCHR1).; type: functional
Bcl-2-like protein 10 = target: T3, Bcl-2-like protein 10 (Homo sapiens, UniProt Q9HD36); assay: Bcl-B/TR3 peptide binding disruption – biochemical, fluorescence polarization, FITC-TR3 peptide, selectivity assay for Bfl-1 inhibitor project, primary screen (AID 748);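 also: fluorescence polarization from a fluorescein-labelled TR3 peptide binding purified Bcl-B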
T3 sequence (Q9HD36 whole entry): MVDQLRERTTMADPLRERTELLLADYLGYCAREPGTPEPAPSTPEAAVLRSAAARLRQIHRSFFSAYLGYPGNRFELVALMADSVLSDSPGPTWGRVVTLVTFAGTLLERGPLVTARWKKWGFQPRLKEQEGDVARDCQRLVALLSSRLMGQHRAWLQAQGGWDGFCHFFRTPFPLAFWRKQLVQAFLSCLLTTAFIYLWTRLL

HEK293 [16] = assay: Cytotoxicity assay in HEK293 cells. [Related pubchem assays (depositor defined):AID1266, AID1269, AID1270, AID1271, AID1280, AID1281, AID1282, AID1283, AID1287, AID1289, AID1290, AID1291, AID1292, AID1293, AID1294, AID1295, AID1299, AID1302, AID1364, AID1365, AID1366, AID1367, AID1369, AID1370, AID1371, AID1372, AID1373, AID1374, AID1375, AID1384 …; type: functional, cell-based; details: Homo sapiens
[17] = target: T4, Luciferin 4-monooxygenase (Photinus pyralis, UniProt P08659); assay: In vitro luciferase assay using purified luciferase. [Related pubchem assays: 1299, 1270, 1295, 1375, 1287, 1281, 1293, 1291, 1289, 1280, 465, 1364, 1282, 1372, 1365, 1370, 1367, 1366, 1266, 1373, 1292, 1290, 1302, 1371, 1283, 1271, 1294, 1374, 1368, 1369 ]
HEK293 [18] = assay: PMA/Ionomycin induced NF-kB luciferase assay in 293- NF-kB-Luc stable cells. [Related pubchem assays: 1299, 1270, 1295, 1375, 1287, 1281, 1293, 1291, 1289, 1280, 465, 1364, 1282, 1372, 1365, 1370, 1367, 1366, 1269, 1373, 1292, 1290, 1302, 1371, 1283, 1271, 1294, 1374, 1368, 1369 ]; type: functional, cell-based; details: Homo sapiens
HEK293 [19] = assay: TNF Induced NF-kB Luciferase in 293-NF-kB-Luc Stable Cells. [Related pubchem assays: 1266, 1299, 1269, 1373, 1292, 1290, 1302, 1371, 1283, 1270, 1295, 1271, 1375, 1294, 1374, 1281, 1293, 1291, 1289, 1280, 465, 1368, 1364, 1282, 1372, 1365, 1369, 1370, 1367, 1366 ]; type: functional, cell-based; details: Homo sapiens
[20] = viability loss in THP-1 monocytes – THP-1 cells, cytotoxicity control for Vif-APOBEC3G degradation inhibitor project, dose response (AID 1117359); type: functional; details: THP-1
Hexokinase HKDC1 = Hexokinase HKDC1 (Homo sapiens, UniProt Q2TB90); assay: inhibition of HKDC1 glucose phosphorylation – biochemical, W721R variant, dose response (AID 504729); type: functional
[21] = Fluorescence-based cell-based high throughput dose response assay for inhibitors of the interaction of nucleotide-binding oligomerization domain containing 2 (NOD2) and the receptor-interacting serine-threonine kinase 2 (RIPK2).; type: functional; details: Homo sapiens
Beta-galactosidase = Beta-galactosidase (Escherichia coli, UniProt Q8VNN2); assay: detection-enzyme interference by beta-gal modulators – biochemical, E. coli enzyme, set 3, artefact control for CCR6 antagonist project, dose response (AID 504712); type: functional
Genome polyprotein = Genome polyprotein (dengue virus type 2, UniProt P29990); assay: flavivirus cap methylation enzyme inhibition – biochemical, confirmation dose response, primary screen (AID 588689); type: functional
Beta Lactamase = Beta Lactamase (Pseudomonas aeruginosa, UniProt Q932Y6); assay: BLA reporter interference, concentration series – BLA reporter cells, FRET fluorescence, artefact control for NOD2-RIPK2 interaction inhibitor project, dose response (AID 651552); type: functional, cell-based
[22] = target: Acylamino-acid-releasing enzyme (Homo sapiens, UniProt P13798); assay: endogenous PME-1 and serine hydrolase inhibition – cell lysate, mouse brain cytosol, FP-rhodamine, gel ABPP, selectivity assay for PME-1 inhibitor project, dose response, panel member APEH Assay Panel member description: Inhibition of N-acylaminoacyl-peptide hydrolase (APEH) (anti-target) (AID 2366)
[23] = target: T5, Voltage-gated N-type calcium channel alpha-1B subunit/Amyloid beta A4 precursor protein-binding family A member 1 (Homo sapiens, UniProt Q00975+Q02410); assay: disruptors of Mint-PDZ/N-type channel peptide interaction – biochemical, HTRF, SAR follow-up (AID 2489); type: functional
[24] = target: T5, Voltage-gated N-type calcium channel alpha-1B subunit/Amyloid beta A4 precursor protein-binding family A member 1; assay: disruptors of Mint-PDZ/N-type channel peptide interaction – biochemical, HTRF, set 2, SAR follow-up (AID 434980); type: functional
[25] = target: T2, Neuropeptides B/W receptor type 1; assay: human NPBW1 receptor blockade, IC50 – cell-based, fluorescence, dose response, late-stage follow-up (AID 463251); type: functional
[26] = target: Induced myeloid leukemia cell differentiation protein Mcl-1 (Homo sapiens, UniProt Q07820); type: functional
[27] = Luminescence Cell-Based Dose Confirmation HTS to Identify Inhibitors of Platelet Dense Granule Release. [Related pubchem assays: 1663 (Primary HTS), 1678 (Summary of Project)]; type: functional
[28] = target: T4, Luciferin 4-monooxygenase; assay: inhibition of purified Photinus pyralis luciferase – biochemical, luminescence, dose response (AID 1891)
[29] = target: NACHT, LRR and PYD domains-containing protein 3 (Homo sapiens, UniProt Q96P20); assay: NALP3 inhibitors in yeast, dose response, luminescent (AID 488799); type: functional
cells [30] = assay: cells
[31] = target: T6, Oxysterols receptor LXR-beta (Homo sapiens, UniProt P55055); type: functional, cell-based;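 also: Cell-based luminescence dose-response assay of agonist activity at LXR, run as a confirmatory counterscreen to a daf-12 agonist screen; HEK293 cells with Gal4-LXR fusion and GAL4-driven luciferase reporter; agonist potency from rising luciferase signal of a Gal4-LXR reporter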
T6 sequence (P55055 whole entry): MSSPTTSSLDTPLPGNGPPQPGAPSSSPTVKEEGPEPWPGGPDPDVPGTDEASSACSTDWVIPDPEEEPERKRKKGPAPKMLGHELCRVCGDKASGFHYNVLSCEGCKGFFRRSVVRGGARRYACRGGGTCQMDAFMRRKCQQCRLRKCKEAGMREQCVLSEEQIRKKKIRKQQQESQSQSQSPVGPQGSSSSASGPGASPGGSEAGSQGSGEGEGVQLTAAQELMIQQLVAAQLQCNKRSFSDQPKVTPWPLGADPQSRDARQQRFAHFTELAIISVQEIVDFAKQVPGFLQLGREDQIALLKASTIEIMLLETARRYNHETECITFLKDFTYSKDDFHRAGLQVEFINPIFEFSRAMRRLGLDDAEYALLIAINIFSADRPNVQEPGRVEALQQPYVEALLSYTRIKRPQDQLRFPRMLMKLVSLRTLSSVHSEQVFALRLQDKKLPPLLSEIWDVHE

[32] = target: Neurotensin receptor type 1 (Homo sapiens, UniProt P30989); type: functional;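 also: Image-based confirmatory dose-response assay measuring agonist activity at NTR1; NTR1-expressing U2OS osteosarcoma cells imaged for beta-arrestin GFP spot formation; agonist potency where compounds increase beta-arrestin recruitment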
Cytochrome P450 2D6 = Cytochrome P450 2D6 (Homo sapiens, UniProt P10635); assay: qHTS Assay for Inhibitors and Substrates of Cytochrome P450 2D6. [Related pubchem assays: 410 ]; type: ADME; details: read-out: Potency
Cytochrome P450 2C19 = Cytochrome P450 2C19 (Homo sapiens, UniProt P33261); assay: qHTS Assay for Inhibitors and Substrates of Cytochrome P450 2C19. [Related pubchem assays: 410 ]; type: ADME; details: read-out: Potency

T5 sequence (Q00975 whole entry): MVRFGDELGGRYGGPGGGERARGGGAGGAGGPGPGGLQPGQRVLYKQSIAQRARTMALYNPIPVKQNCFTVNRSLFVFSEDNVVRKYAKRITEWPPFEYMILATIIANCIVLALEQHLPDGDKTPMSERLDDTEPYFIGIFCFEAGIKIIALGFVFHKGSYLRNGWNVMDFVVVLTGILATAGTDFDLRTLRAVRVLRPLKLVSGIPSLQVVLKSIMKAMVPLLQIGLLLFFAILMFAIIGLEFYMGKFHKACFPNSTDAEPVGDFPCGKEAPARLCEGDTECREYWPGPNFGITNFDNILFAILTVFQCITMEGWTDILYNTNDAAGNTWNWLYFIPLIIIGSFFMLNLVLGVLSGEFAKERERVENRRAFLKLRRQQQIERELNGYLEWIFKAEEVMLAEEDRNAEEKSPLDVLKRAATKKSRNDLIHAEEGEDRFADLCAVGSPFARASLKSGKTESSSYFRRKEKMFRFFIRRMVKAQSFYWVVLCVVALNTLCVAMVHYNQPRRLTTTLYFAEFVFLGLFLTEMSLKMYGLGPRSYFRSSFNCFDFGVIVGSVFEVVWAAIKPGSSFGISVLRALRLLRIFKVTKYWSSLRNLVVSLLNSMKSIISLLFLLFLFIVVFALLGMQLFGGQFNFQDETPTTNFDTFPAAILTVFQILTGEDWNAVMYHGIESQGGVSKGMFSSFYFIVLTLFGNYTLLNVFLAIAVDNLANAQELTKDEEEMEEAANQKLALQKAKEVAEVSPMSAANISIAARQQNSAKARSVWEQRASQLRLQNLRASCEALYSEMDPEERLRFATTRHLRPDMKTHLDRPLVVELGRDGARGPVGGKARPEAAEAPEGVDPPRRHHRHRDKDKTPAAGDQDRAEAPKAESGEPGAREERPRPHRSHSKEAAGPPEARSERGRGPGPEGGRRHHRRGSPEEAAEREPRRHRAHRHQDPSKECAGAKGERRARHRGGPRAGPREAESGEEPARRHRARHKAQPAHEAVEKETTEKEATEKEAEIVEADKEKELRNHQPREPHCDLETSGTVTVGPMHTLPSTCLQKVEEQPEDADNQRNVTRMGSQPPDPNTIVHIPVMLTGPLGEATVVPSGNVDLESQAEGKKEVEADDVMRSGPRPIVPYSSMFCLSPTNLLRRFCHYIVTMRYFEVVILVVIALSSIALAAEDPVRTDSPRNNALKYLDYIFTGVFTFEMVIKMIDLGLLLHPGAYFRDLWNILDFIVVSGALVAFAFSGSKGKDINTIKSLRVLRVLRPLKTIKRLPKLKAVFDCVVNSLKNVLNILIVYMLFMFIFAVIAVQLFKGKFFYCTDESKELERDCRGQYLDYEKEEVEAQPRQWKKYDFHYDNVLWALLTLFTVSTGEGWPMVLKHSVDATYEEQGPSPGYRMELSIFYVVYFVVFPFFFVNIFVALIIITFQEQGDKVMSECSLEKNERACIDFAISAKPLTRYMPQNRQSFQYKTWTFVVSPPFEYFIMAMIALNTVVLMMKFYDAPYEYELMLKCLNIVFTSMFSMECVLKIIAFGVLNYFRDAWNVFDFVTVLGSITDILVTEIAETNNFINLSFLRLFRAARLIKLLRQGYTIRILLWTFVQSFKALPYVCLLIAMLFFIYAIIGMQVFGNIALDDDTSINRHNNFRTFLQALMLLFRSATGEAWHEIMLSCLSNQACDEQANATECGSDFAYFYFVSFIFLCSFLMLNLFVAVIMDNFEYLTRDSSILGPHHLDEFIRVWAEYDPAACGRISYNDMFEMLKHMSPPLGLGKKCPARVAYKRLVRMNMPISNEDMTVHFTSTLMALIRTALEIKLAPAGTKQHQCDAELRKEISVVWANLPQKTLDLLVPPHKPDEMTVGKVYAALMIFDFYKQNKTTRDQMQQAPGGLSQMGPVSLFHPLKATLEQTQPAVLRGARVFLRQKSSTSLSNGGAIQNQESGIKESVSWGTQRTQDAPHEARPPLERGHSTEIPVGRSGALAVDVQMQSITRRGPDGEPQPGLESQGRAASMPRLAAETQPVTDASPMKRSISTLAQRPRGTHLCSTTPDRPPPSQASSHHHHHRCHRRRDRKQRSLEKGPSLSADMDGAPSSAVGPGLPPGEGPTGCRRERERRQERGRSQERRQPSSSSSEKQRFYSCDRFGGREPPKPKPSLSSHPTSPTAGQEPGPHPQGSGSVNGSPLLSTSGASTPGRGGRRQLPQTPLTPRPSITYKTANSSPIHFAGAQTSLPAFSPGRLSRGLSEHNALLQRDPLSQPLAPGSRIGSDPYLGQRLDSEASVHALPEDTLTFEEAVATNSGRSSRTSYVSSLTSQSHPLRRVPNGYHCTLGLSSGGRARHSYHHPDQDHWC
T5 sequence (Q02410 whole entry): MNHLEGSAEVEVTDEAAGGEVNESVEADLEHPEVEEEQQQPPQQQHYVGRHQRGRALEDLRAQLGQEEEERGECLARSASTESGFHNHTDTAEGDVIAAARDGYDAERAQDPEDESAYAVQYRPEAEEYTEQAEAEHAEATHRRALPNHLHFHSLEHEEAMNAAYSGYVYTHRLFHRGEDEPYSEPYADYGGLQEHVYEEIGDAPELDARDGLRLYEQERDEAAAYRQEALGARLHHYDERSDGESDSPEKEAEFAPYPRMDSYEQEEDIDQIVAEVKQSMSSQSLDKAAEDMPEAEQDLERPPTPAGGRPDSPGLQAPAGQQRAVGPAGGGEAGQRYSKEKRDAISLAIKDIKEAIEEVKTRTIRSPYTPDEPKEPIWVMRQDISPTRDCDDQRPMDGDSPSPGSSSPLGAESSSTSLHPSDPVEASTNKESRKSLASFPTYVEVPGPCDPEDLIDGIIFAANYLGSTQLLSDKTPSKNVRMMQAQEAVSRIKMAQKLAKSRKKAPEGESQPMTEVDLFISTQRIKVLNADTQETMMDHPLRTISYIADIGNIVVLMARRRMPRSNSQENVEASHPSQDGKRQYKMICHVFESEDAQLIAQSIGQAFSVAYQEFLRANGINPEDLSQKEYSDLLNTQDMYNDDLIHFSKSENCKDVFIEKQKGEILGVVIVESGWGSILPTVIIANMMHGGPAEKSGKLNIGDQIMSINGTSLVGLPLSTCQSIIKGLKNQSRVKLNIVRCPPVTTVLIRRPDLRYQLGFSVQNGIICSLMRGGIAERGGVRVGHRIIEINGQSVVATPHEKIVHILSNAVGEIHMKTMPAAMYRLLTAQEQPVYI
T4 sequence (P08659 whole entry): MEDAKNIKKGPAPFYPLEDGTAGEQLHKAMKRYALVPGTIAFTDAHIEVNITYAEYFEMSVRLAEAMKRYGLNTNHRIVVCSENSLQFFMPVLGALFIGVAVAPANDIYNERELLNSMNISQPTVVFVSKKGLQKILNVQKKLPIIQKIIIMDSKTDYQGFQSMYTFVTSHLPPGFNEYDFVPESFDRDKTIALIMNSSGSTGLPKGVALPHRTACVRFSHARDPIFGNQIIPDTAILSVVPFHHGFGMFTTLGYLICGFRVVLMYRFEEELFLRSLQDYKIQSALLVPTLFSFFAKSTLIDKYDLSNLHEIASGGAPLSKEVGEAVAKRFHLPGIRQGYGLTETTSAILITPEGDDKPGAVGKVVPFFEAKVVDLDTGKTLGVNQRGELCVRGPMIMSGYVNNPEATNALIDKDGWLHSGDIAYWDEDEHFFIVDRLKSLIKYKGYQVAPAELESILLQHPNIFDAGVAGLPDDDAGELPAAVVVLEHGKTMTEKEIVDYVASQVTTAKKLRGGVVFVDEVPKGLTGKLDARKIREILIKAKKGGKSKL
Nucleotide-binding oligomerization domain-containing protein 2, sequence (Q9HC29 whole entry, the tested form may be a part): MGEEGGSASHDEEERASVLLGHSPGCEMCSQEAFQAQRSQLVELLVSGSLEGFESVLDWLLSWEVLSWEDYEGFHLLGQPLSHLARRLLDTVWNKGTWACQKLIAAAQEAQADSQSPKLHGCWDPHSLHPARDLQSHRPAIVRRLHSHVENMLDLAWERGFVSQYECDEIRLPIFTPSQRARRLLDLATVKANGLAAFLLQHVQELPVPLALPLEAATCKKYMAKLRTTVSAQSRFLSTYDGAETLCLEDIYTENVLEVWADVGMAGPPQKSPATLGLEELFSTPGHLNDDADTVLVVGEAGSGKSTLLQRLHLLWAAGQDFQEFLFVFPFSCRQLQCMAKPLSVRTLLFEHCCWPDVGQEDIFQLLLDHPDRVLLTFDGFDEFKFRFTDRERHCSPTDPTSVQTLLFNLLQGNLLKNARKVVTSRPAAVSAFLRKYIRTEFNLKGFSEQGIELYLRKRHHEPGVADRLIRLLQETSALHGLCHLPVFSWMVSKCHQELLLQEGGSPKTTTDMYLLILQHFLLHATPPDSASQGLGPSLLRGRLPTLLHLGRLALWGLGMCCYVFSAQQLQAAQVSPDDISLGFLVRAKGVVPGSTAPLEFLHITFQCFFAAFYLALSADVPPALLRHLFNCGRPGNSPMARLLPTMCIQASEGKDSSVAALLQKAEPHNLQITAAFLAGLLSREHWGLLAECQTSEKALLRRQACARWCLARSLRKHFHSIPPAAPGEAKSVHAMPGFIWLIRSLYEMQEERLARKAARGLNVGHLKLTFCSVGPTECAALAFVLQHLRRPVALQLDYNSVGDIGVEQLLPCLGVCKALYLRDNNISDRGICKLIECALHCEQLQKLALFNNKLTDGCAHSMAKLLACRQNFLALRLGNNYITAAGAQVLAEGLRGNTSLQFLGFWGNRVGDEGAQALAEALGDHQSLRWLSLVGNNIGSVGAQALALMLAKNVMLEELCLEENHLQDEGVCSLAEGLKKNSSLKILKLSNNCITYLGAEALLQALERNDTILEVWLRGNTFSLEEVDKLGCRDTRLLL
Beta Lactamase, sequence (Q932Y6 whole entry): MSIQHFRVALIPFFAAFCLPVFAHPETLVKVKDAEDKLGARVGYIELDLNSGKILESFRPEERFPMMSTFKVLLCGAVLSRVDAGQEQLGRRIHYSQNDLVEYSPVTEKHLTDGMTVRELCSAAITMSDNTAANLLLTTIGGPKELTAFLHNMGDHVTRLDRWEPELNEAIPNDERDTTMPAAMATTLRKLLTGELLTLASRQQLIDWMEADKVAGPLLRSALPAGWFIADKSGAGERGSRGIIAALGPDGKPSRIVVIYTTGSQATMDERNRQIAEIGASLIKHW

Cc1cc(Br)c(-c2ccc(/C=C3/NC(=S)NC3=O)o2)cc1C
Ki [1]: 3.19 µM (active)

CCC(=O)Nc1nc2ccccc2n1Cc1ccc(Cl)cc1
IC50 [2]: 12.3 µM (active) | EC50 [3]: 1.1 µM (active) | CC50 [4]: > 20 µM (active) | IC50 [5]: 15.8 µM (active) | CC50 [6]: 11 µM (active) | IC50 (Tumor necrosis factor): > 20 µM (inactive) | CC50 [7]: 33.9 µM (active) | IC50 (cells [8]): 0.29 µM (active) | EC50 [9]: 8.28 µM (active) | CC50 [10]: > 40 µM (active) | IC50 (Interleukin-8 [11]): > 25 µM (inactive) | IC50 (HEK293 [12]): > 20 µM (inactive) | IC50 (Interleukin-8 [13]): > 25 µM (inactive)

CN(C)C1=NC[C@H](Cc2ccccc2)N1CC1CCC(C(C)(C)C)CC1 (stereo not given in full)
IC50 [14]: 7.86 µM (active) | IC50 [15]: 10.6 µM (not active)

CC(=O)C1=C(O)C(=O)N(Cc2ccccc2)C1c1ccco1 (stereo not given)
IC50 (Bcl-2-like protein 10): > 100 µM (inactive)

Cc1oc2cc3c(C(=O)OCCN(C)C)c(C)oc3cc2c1C(=O)OCCN(C)C
EC50 (HEK293 [16]): 13.9 µM (inactive) | EC50 [17]: > 8 µM (not active) | EC50 (HEK293 [18]): 0.781 µM (active) | EC50 (HEK293 [19]): 0.11 µM (active)

Cc1[nH]c2ccccc2c1C1=CC(=O)C=CC1=O
CC50 [20]: > 40 µM (active) | IC50 (Hexokinase HKDC1): 3.4 µM (active) | IC50 [21]: 3.46 µM (active) | IC50 (Beta-galactosidase): > 66.6 µM (inactive) | IC50 (Genome polyprotein): 17.7 µM (active) | IC50 (Beta Lactamase): 19.9 µM (inactive)

CC(C)(C)S(=O)(=O)/C(C#N)=C/c1cccn1S(=O)(=O)c1ccccc1
IC50 [22]: > 50 µM (inactive)

COc1ccc(CNC(=O)COC(=O)c2cccc3ccccc23)cc1
IC50 [23]: > 56.8 µM (inactive) | IC50 [24]: 26.4 µM (active)

CCOc1ccc(CCOc2c(Cl)cnn(-c3ccccc3)c2=O)cc1OCC
IC50 [25]: > 20 µM (inactive)

Oc1c(/C=N/c2ccccn2)sc2ccccc12
IC50 [26]: 1.64 µM (active) | EC50 [27]: 11.5 µM (active) | EC50 [28]: 1.8 µM (active) | IC50 [29]: 10.2 µM (active)

O=C(N/N=C/c1cn(-c2ccccc2)nc1-c1cc2ccccc2o1)c1cccnc1
EC50 (cells [30]): > 67.5 µM (inactive) | EC50 [31]: > 67.5 µM (inactive) | EC50 [32]: > 40 µM (inactive)

C[C@@H](C(=O)O)c1ccc(N2Cc3ccccc3C2=O)cc1 [(R)-INDOPROFEN]
AC50 (Cytochrome P450 2D6): 7.94 µM (inconclusive) | AC50 (Cytochrome P450 2C19): 10 µM (inconclusive)
